Data reported in patent US20090130033A1, “Dendrimer-Aminobuadiene-Based Uv Screens” (priority 2004, published 2009).

Experiment: Absorption maximum of aminobutadienes in methanol (or ethanol)
Type: physicochemical
Settings: in methanol (or ethanol when not soluble in methanol)
Excerpt: The aminobutadiene according to the present invention has the general formula (I) disclosed above. A preferred class of aminobutadienes is that in which R3 represents —COOH, —COOR5, —COR5 or SO2R5 and R4 represents a carboxyl group, —COOR6, —COR6 or —SO2R6, wherein R1, R2, R5 and R6 have the meanings indicated above. Examples of aminobutadienes according to the general formula (I) are for example disclosed in U.S. Pat. No. 4,195,999. Table 1 lists a number of aminobutadienes according to the present invention which can be coupled to an amine rich polymer, including their absorption maxima in methanol (or ethanol when not soluble in methanol).

Absorption maximum: 395 nm
Structure (SMILES): CCCCC(CC)COC(=O)/C(=C\C=C\N1CCCCC1)C(C)=O (stereo not shown) [2.3]
